Results taken from patent US9060541B2, “Sterilizer for foods” (Kawakami Co., Ltd., priority 2009, dated 2015).

What was measured:
[1] = tested on: Campylobacter jejuni subsp. Jejuni JCM2013; experiment: Sterilization test on beef (yukhoe; raw beef); format: cell-based; settings: sprayed and mixed into inoculated beef; 24 hours after storage at 10° C.
[2] = tested on: Escherichia coli O-157 (enterohemorrhagic Escherichia coli O157: H7 EDL 933); experiment: Cutting board sterilization test; format: cell-based; settings: 0.7 ml sprayed on contaminated cutting board; swab sample 1 minute later; cultured 24 hours at 37° C.
general viable bacteria = experiment: Hand sterilization test (Sterilization Test 2); settings: 1.4 ml sprayed on washed and dried hand; swab sample 1 minute later; cultured 48 hours at 37° C.
[3] = tested on: Staphylococcus aureus (209P); experiment: Sterilization effect determination test (Fujimoto's modified method of the Kelsey-Sykes method); format: cell-based; set-up: key: D: There is no sterilization effect.; C: There is a sterilization effect in step (1) but no sterilization effect in step (2).; B: There is a sterilization effect up to step (2) but no sterilization effect in step (3).; A: There is a sterilization effect up to step (3); settings: water remainder
Escherichia coli (NIHJ) = experiment: as above; format: cell-based; set-up: key: D: There is no sterilization effect.; C: There is a sterilization effect in step (1) but no sterilization effect in step (2).; B: There is a sterilization effect up to step (2) but no sterilization effect in step (3).; A: There is a sterilization effect up to step (3); settings: water remainder
[4] = Table 2, compositions of calcinated calcium and ethanol, 20° C., steps (1)-(3)
[5] = Table 1, compositions of calcinated calcium and ethanol, 20° C., steps (1)-(3)
[6] = Table 4, compositions with sodium lactate blended
[7] = Table 3, compositions with sodium lactate blended

Compound	Sterilization effect [3, 4]	Sterilization effect (Escherichia coli (NIHJ); [5])	Sterilization effect [3, 6]	Sterilization effect (Escherichia coli (NIHJ); [7])	also measured
CCO [70% ethanol, ethanol]	–	–	–	–	viable bacteria count [1]: 10^5 to 10^6; Cutting board microbe eradication results (general viable bacteria count) [2]: 2.8 × 10^4; Hand sterilization results (general viable bacteria count) (general viable bacteria): 6.2 × 10^3
CCO [Ethanol 5 wt %, ethanol]	D	D	–	–	–
CCO [Ethanol 10 wt %, ethanol]	D	D	–	–	–
CCO [Ethanol 20 wt %, ethanol]	D	D	–	–	–
CCO [Ethanol 50 wt %, ethanol]	D	B	–	–	–
CCO [Ethanol 75 wt %, ethanol]	B	B	–	–	–
CCO [Ethanol 100 wt %, ethanol]	A	A	–	–	–
CC(O)C(=O)[O-].[Na+] (stereo not shown) [Sodium lactate 1.5 wt %, sodium lactate]	–	–	D	D	–
CC(O)C(=O)[O-].[Na+] (stereo not shown) [Sodium lactate 3 wt %, sodium lactate]	–	–	D	D	–
CC(O)C(=O)[O-].[Na+] (stereo not shown) [Sodium lactate 4.5 wt %, sodium lactate]	–	–	D	D	–
CC(O)C(=O)[O-].[Na+] (stereo not shown) [Sodium lactate 6 wt %, sodium lactate]	–	–	D	D	–
CC(O)C(=O)[O-].[Na+] (stereo not shown) [Sodium lactate 9 wt %, sodium lactate]	–	–	D	no sterilization effect whatsoever and D	–
